Measurements as given in patent US20250269039A1, “THERAPEUTIC-OLIGONUCLEOTIDES ACTIVATED BY NUCLEASES” (priority 2020, published 2025).
Converted amounts (≈) assume the structure as drawn.

Tests used:
S. aureus = experiment: Growth inhibition curves / MICs in S. aureus cultures (strain not named or summary over strains); format: cell-based, Staphylococcus aureus; details: Staphylococcus aureus, read-out: MIC values over all S. aureus strains tested
How it was run: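 Broth microdilution in cation-adjusted Mueller Hinton Broth, final 5×10^5 CFU/mL, 37° C, OD600 read every 10 min for 18 h; MIC is lowest concentration without visible growth at 18 h, PBS+/+ as untreated control. Specificity: 5 μL of each strain at several concentrations plated on CHROM agar Orientation, growth judged by eye after 24 h at 37° C.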

S. aureus ATCC1766 = experiment: Mouse thigh muscle infection model: gross pictures, histopathology, bacteria counts; format: in vivo, mice; details: for histopathological analysis of infected leg / visible bacterial infection of infected leg (gross photographs): mice, i.v.; for histopathological analysis of infected leg: 20 mg/kg/24 hour Floxuridine equivalent, FIG. 7d-g; for visible bacterial infection of infected leg (gross photographs): four doses equivalent to 5 mg/kg Floxuridine over 24 hours, FIG. 7a-c
Method: In vivo assessment of the therapeutic efficacy of TOUCANs in a mouse infection model. All animal experiments described in this study were conducted at the Linköping University Center for Biomedical Resources and were approved by the Swedish Ethical Board “Jordbruksverket” under the animal protocol 1253. All experiments were conducted according to the principles expressed in the Declaration of Helsinki. Six-weeks old female […] mice were divided into three different groups: Placebo (saline solution), Floxuridine alone and TOUCAN 7mFx, with 8 mice per group. First, to induce the infection, S. aureus ATCC1766 strain was cultured on tryptone soy agar with 5% defibrinated sheep blood, and single colonies were transferred to 25 mL tryptone soy broth and incubated at 37° C. for 12 hours with 200 rpm shaking. Next, bacteria solution was diluted 1/100 using PBS+/+ (˜10^7 CFU/mL) and 50 μL (˜5×10^5 CFU) were injected into the right thigh muscles of all mice under sterile conditions and 2% isoflurane anesthesia. This method was optimized based on our previous animal infection model.^16 In this model, the left uninfected leg was used as control for each animal. This model induces reproducible infections after 24 hours. Next, the therapeutic regime was adapted from a previous study that validated the efficacy of several antibiotics against S. aureus.^28 We have treated the mice for 24 hours with four doses of TOUCAN 7mFx equivalent to 5 mg/kg of Floxuridine in 100 μL of PBS−/−, administered intravenously by tail vein injections. The first dose was administered after 2 hours post-inoculation, followed by 3 additional injections at the same concentration every 6 hours. In total, each animal was given TOUCAN 7mFx equivalent to 20 mg/kg/24 hour of Floxuridine. In this study, two additional groups, Placebo and Floxuridine alone, were also tested in infected animals. In the Placebo group, mice were injected with a saline solution (PBS), and in the Floxuridine group, mice were injected with 20 mg/kg/24 hours of Floxuridine under the same conditions indicated for TOUCAN 7mFx. After 24 hours, blood samples were collected, and mice were euthanized. For a thorough blood analysis, we have included an additional group of uninfected/untreated mice as control. Next, gross pictures of both legs were taken and samples for histopathological and bacteriological analyses were collected. At least four mice per group per analysis were used in this study.
Gross pictures. Once the mice were euthanized, the skin from legs and dorsal part was removed very carefully to allow observation of the bacterial infection and the associated tissue damage. Next, photographs were taken to document the localized infection for each animal.
Histopathological analysis. To evaluate the histopathological features of infected and uninfected tissues, the thigh muscles of the animals were dissected. Subsequently, tissues were transferred to 4% buffered formaldehyde solution and stored at 4° C. for 24 hours. Then, tissues were removed from the formaldehyde solution and transferred into 50% ethanol for 15 minutes followed by 70% ethanol until processed. Next, tissues were fixed, dehydrated and wax infiltrated using a Leica TP1020 system for 7 hours. Subsequently, tissues were embedded in paraffin using a Leica EG 1150 system. The sections slides were prepared using an Automatic Rotary Microtome HM355S system and finally, samples were stained with Hematoxylin-Eosin (H&E) using an Automatic Leica ST4020 Linear Stainer. The slides were imaged using an Olympus BX51 light microscope.
Bacteria counts. To measure viable bacteria in mice, infected and uninfected tissues from both legs were collected, transferred to individual 1.5 mL vials and weighted on a microbalance. Each sample was homogenized in 1 mL of PBS using Fisherbrand Bead Mill 4 automatic homogenizer (Fisher Scientific). The homogenized solutions were serially diluted to 1:100, 1:1.000, 1:10.000 and 1:100.000. […]

[1] = infected leg, CFU/g, after 24 hours, FIG. 7h

| Compound | MIC (S. aureus) [µg/mL] | bacteria count of infected leg (S. aureus ATCC1766; infected leg, after 24 hours, FIG. 7h) | histopathological analysis of infected leg (S. aureus ATCC1766) | visible bacterial infection of infected leg (gross photographs) (S. aureus ATCC1766) | times less bacteria recovered compared to Floxuridine group (S. aureus ATCC1766; [1]) [times] | times less bacteria recovered compared to Placebo group (S. aureus ATCC1766; [1]) [times] |
| --- | --- | --- | --- | --- | --- | --- |
| O=c1[nH]c(=O)n([C@H]2C[C@H](O)[C@@H](CO)O2)cc1F [Floxuridine, reference compound] | 0.005 to 0.32 (≈ 0.0203 to 1.3 µM) | high bacteria count | clear evidence of bacterial infection, inflammation, and neutrophil infiltration | slightly stronger infection | – | – |
| mU-mU-mU-mU-T-T-Fx [TOUCAN 7mFx] | – | – | minimal inflammation with residual neutrophil infiltration | do not show any visible signs of bacterial infection | 2949 | 642 |
